Assays:
[1] = molecular target: T1, α1β3 GABAA receptors (UniProt P28472+P62813); experiment: Patch-clamp of recombinant α1β3 GABAAR in HEK293 cells; format: cell-based, rat α1, human β3
T1 construct: expressed in transfected cells; host or cells: HEK293
Experimental: (§1) HEK 293 cells were obtained from DSM (Deutsche Sammlung von Mikroorganismen und Zellkulturen GmbH, DSM, Braunschweig). They were grown and maintained according to published standard protocols. Briefly, cells were grown in minimal essential medium supplemented with 10% fetal bovine serum, 100units/ml penicillin and streptomycin and 2 mM L-glutamine and splitted once per week. Semiconfluent cells were transfected on the third day after splitting with the help of Lipofectamine 2000 (Invitrogen), recordings were done 48–72 hrs after transfection.
(§2) The GABAAR subunit cDNAs, generously donated by G.Gisselmann (rat α1, mouse γ2L, rat β1, β2 and human β3 [26]) and J.H. Steinbach (rat α1V256S [28] and rat α1Q241L [44]), were subcloned into pcDNA3 (Invitrogen, Karlsruhe, Germany) and applied in a ratio 1∶1∶1 for the α1βxγ2L receptor and 1∶1 for α1β3 or β3γ2L receptors. […] For each receptor type patch clamp recordings were obtained from at least three separate transfections. Whole-cell patch clamp recordings were done in a similar extracellular solution as for the native cells (see above) except that the concentration of MgCl2 was reduced to 1.2 mM. Intracellular electrodes contained 140 mM CsCl (instead of KCl), pH adjusted with CsOH. The voltage was held at −40 mV.

[2] = system: isolated TMN neurons (sIPSCs); experiment: sIPSCs in acutely isolated and cultured neurons; format: cell-based
Experimental: (§3) Recordings from histaminergic neurons in male Wistar rat (22–26 day old) or 30–60 day old mouse (SV129, histidine decarboxylase deficient HDC−/− or their wild type littermates) hypothalamic slices were performed as previously described. Slices were obtained between 9 and 11 a.m. In the beginning of whole-cell voltage clamp recordings TMN neurons were identified with the help of DIC microscopy and electrophysiological criteria as previously described. Inhibitory postsynaptic currents (IPSCs) were evoked by local stimulation through a bipolar stainless-steel stimulating electrode (50 µm; WPI, UK). The stimulation of axonal endings coming to TMN from ventrolateral preoptic area (VLPO) was done as described in [22]. […] Individual neurons were separated by vibrodissociation after brief preincubation with papain from the hypothalamic slices of mice or rats and identified as TMN neurons according to their size and shape. Identification was confirmed post hoc with the single-cell RT-PCR (all data presented in the manuscript were obtained from histidine decarboxylase-expressing neurons), [40]. TMN neurons from HDC−/− mice were identified by the expression of peripherin [16]. Whole-cell voltage-clamp recordings from isolated neurons were done with an EPC-9 amplifier and TIDA for Windows (HEKA, Lambrecht, Germany) at room temperature. Membrane potentials were not corrected for liquid junction potential (5.6 mV, calculated with LJPCalc, Barry, 1994). The intracellular solution was composed of (in mM) 140 KCl, 2 MgCl2, 0.5 CaCl2, 5 EGTA, 2 ATP and 10 HEPES (pH 7.2 adjusted with NaOH). A fast perfusion technique was used for application of ligands and modulators of fast ionotropic receptors, [41]. […] EC50 is the ligand concentration producing a half-maximal response, [ligand] is ligand concentration, and n is the Hill slope. Hill coefficients were obtained from the slope of the log/log plot of the dose-response curves. […] Steady-state amplitudes of the responses were used for the construction of dose-response plots if not mentioned otherwise.

[3] = molecular target: T2, β3γ2L GABAA receptors (UniProt P22723+P28472); experiment: Patch-clamp of recombinant β3γ2L receptors in HEK293 cells, histamine-evoked currents; format: cell-based, human β3, mouse γ2L; conditions: histamine 5 mM
T2 construct: expressed in transfected cells; host or cells: HEK293
T2 sequence (P28472 26-473): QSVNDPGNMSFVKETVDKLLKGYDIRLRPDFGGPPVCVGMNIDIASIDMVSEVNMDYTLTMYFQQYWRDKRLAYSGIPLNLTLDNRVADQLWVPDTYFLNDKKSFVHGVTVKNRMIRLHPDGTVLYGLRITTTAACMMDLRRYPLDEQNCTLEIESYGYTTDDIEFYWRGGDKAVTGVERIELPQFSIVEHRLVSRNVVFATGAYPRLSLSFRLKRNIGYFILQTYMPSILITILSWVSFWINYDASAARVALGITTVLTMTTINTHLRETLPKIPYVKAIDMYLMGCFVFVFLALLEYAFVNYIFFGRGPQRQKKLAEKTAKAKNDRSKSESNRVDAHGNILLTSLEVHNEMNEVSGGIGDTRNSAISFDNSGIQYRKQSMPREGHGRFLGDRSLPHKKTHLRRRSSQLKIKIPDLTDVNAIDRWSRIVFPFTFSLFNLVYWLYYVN
T2 sequence (P22723 39-474): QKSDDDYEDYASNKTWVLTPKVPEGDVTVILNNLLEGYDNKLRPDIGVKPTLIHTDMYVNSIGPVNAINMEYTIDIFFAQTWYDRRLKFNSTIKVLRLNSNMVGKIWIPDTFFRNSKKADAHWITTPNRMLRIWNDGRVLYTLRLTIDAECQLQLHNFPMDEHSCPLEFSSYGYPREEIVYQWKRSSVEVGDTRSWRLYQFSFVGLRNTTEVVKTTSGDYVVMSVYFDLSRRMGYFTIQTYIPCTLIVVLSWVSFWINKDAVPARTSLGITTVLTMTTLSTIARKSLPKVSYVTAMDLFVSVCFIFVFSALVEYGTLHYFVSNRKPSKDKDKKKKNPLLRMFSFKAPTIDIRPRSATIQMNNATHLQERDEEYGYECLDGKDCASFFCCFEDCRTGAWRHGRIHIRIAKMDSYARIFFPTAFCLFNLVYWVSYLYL
Experimental: as §1, §2

[4] = system: cultured hypothalamic neurons; experiment: Microelectrode array (MEA) recordings of cultured hypothalamic neurons; format: cell-based, mouse
Experimental: Primary dissociated cultures of posterior hypothalamus were prepared from newborn mice according to the protocols previously described, [43]. […] Recordings were done between 11th-21st day after plating. […] Signals from all 60 electrodes were simultaneously sampled at 25 kHz, visualized and stored using the standard software […] provided by Multi Channel Systems. Spike detection and analysis was performed offline with the software […] (RESULT Medizinische […], Germany), which uses the agreement coefficient “Cohen's kappa” (κ) to assess the degree of spike and burst synchrony for selected pairs of electrodes. […] In order to describe the distribution of kappa across the whole MEA, we calculated the mean of all kappa-values obtained for pairs of “active” electrodes. At the beginning of experiments the basal medium was replaced by a magnesium-free HEPES-based recording solution (see above) and measurements were started after a 20 min adaptation phase. Every measurement comprised three recordings - control, test substance and washout (second control) - each two minutes long and separated by an intermediate period of 30 seconds.

[5] = molecular target: T3, α1Q241L mutant α1β2γ2L GABAA receptors (UniProt P22723+P62813+P63138, Q268L); experiment: Patch-clamp of mutant α1Q241L-containing α1β2γ2L GABAAR in HEK293 cells; format: cell-based, rat α1Q241L, rat β2, mouse γ2L; conditions: UDCA 100 µM, 500 µM GABA, n = 5
T3 construct: expressed in transfected cells; host or cells: HEK293
T3 sequence (P62813 28-455 Q268L): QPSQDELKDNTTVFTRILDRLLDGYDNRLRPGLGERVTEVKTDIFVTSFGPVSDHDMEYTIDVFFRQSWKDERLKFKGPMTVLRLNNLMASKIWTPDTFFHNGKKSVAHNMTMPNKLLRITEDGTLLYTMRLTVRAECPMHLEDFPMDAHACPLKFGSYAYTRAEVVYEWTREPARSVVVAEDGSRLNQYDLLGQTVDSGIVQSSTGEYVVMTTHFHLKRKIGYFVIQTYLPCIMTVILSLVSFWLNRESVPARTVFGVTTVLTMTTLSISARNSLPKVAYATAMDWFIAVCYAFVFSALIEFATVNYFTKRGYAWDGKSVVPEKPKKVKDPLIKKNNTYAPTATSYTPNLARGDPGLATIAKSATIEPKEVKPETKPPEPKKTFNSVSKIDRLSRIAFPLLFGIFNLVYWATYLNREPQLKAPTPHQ
T3 sequence (P63138 25-474 limits assumed): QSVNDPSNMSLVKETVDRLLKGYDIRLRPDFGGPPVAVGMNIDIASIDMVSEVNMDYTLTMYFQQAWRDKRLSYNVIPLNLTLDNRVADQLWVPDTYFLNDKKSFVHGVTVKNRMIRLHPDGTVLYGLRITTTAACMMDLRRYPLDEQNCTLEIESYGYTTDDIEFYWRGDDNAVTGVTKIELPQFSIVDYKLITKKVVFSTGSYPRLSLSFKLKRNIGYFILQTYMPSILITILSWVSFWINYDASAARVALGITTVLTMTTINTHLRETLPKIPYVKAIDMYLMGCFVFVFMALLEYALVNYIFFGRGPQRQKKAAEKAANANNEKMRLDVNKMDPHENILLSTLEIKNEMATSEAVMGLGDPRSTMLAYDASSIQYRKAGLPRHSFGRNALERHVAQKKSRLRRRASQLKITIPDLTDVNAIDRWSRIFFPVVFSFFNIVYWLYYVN
T3 sequence (P22723 39-474): as the sequence (P22723 39-474) above
Experimental: as §1, §2

[6] = system: GABAA receptor; experiment: Voltage dependence of GABAAR block (Woodhull analysis); format: cell-based
Experimental: Voltage dependence of GABAAR block by UDCA was analysed according to the method of Woodhull, which provides a means of calculating the fraction of the transmembrane field sensed by charged blocking ligand at its acceptor site.

[7] = system: native GABAA receptors; experiment: GABA-evoked whole-cell currents in acutely isolated TMN neurons (wild type); format: cell-based, mouse
Experimental: as §3

[8] = molecular target: T4, α1β3γ2L GABAA receptors (UniProt P22723+P28472+P62813); experiment: Patch-clamp of recombinant α1β3γ2L GABAAR in HEK293 cells; format: cell-based, rat α1, human β3, mouse γ2L
T4 construct: expressed in transfected cells; host or cells: HEK293
T4 sequence (P62813 28-455): as the sequence (P62813 28-455 Q268L) above, with L241Q counted along it
T4 sequence (P28472 26-473): as the sequence (P28472 26-473) above
T4 sequence (P22723 39-474): as the sequence (P22723 39-474) above
Experimental: as §1, §2

[9] = molecular target: T5, α1V256Sβ2γ2L GABAA receptors (UniProt P22723+P62813+P63138, V283S); experiment: Patch-clamp of mutant α1V256Sβ2γ2L GABAAR in HEK293 cells; format: cell-based, rat α1V256S, rat β2, mouse γ2L
T5 construct: expressed in transfected cells; host or cells: HEK293
T5 sequence (P62813 28-455 V283S): as the sequence (P62813 28-455 Q268L) above, with L241Q, V256S counted along it
T5 sequence (P63138 25-474 limits assumed): as the sequence (P63138 25-474 limits assumed) above
T5 sequence (P22723 39-474): as the sequence (P22723 39-474) above
Experimental: as §1, §2

[10] = read-out: IC50 of block of GABA-evoked steady-state currents

T1 sequence (P62813 28-455): as the sequence (P62813 28-455 Q268L) above, with L241Q counted along it
T1 sequence (P28472 26-473): as the sequence (P28472 26-473) above

Structure (SMILES): C[C@H](CCC(=O)O)[C@H]1CC[C@H]2[C@@H]3[C@@H](O)C[C@@H]4C[C@H](O)CC[C@]4(C)[C@H]3CC[C@]12C [UDCA, ursodeoxycholic acid]
- Hill coefficient nH of UDCA block ([1]; maximal GABA): 0.65
- IC50 [1, 10]: 81 µM
- decay kinetics of sIPSCs ([2]; 10 µM): significantly accelerated the decay kinetics of sIPSCs in some
- decay kinetics of sIPSCs ([2]; 30 µM): significantly reducing decay kinetics in all investigated neurons
- Hill coefficient nH of UDCA block [3]: 0.62
- IC50 ([3]; read-out: IC50 of block of histamine-evoked currents): 232 ± 66 µM
- synchronicity of firing within the hypothalamic network (Cohen's kappa) ([4]; UDCA): increased
- firing frequency ([4]; UDCA 10, 30 or 100 µM): not affected
- effect on synchronization in the presence of gabazine ([4]; with GABAA receptor antagonist gabazine): abolished
- UDCA-induced synchronization of firing with mifepristone and spironolactone ([4]; with mifepristone 10 µM and spironolactone 10 µM): not affected
- maximal steady-state GABA current [5]: 54±2 % of control
- current amplitude at +50 mV in the presence of UDCA [6]: 69±5 % of control (−50 mV)
- fraction of the transmembrane field sensed at the acceptor site (f) ([6]; Woodhull fit, Eq. 3): 0.29±0.03
- Kd ([6]; Woodhull fit, Eq. 3, read-out: KD(0), dissociation constant at 0 mV): 64 µM
- stationary GABA current in the presence of UDCA relative to unblocked current ([6]; at +50 mV): 28±2%
- stationary GABA current in the presence of UDCA relative to unblocked current ([6]; at −50 mV): 59±2%
- deactivation time constant (τoff) [7]: prolonged
- peak current amplitude of maximal GABA-mediated whole-cell currents [7]: not affected
- use dependence of block of GABA currents [7]: not use dependent
- reversibility of block of GABA currents ([7]; GABA 10 µM, 1 s): fully reversible
- concentration at which inhibition of GABA-evoked currents and sIPSCs starts ([7]; acutely isolated histaminergic neurons): 10 µM
- macroscopic apparent desensitization of responses to saturating GABA ([7]; decrease of fast decay time constant and steady-state/peak ratio): concentration-dependently enhanced
- IC50 ([7]; native receptors, steady-state currents, read-out: IC50 of inhibition of GABA-evoked currents): 92 µM
- Hill coefficient nH of UDCA block ([8]; maximal GABA): 0.63
- IC50 [8, 10]: 73 µM
- relative amplitude of maximal GABA-responses ([9]; UDCA 100 µM, n = 5): 87±1 % of control
- IC50 ([9]; n = 4): 330 ± 41 µM
